“And” between values parts separate entries of the source, which are not always exact repeats. Equal values may be shown once. Inconclusive results and toxic doses are left out.

The subject of this assay is CD2F1 mice, L1210 leukemia ip, survival T/C. Description: NCI In Vivo Anticancer Drug Screen. Data for tumor model L1210 Leukemia (intraperitoneal) in CD2F1 (CDF1) mice. The conditions noted are these: higher = longer survival. The procedure, abridged: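 Ratio T/C, where T is the treated-group value and C the vehicle-dosed control value, from mice implanted with a transplantable tumor.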

Setting [1] is: endpoint: mean survival time, dose: 100.0 mg/kg/injection, schedule: Q01DX009 (ip), vehicle: saline with Tween-80.
Where [2] appears, read: endpoint: mean survival time, dose: 100.0 mg/kg/injection, schedule: Q04DX003 (ip), vehicle: saline with Tween-80.
The mark [3] stands for this setting: endpoint: mean survival time, dose: 200.0 mg/kg/injection, schedule: Q01DX009 (ip), vehicle: saline with Tween-80.
Setting [4] is: endpoint: mean survival time, dose: 200.0 mg/kg/injection, schedule: Q04DX003 (ip), vehicle: saline with Tween-80.
Setting [5] is: endpoint: mean survival time, dose: 400.0 mg/kg/injection, schedule: Q01DX009 (ip), vehicle: saline with Tween-80.
The mark [6] stands for this setting: endpoint: mean survival time, dose: 400.0 mg/kg/injection, schedule: Q04DX003 (ip), vehicle: saline with Tween-80.
The mark [7] stands for this setting: endpoint: mean survival time, dose: 50.0 mg/kg/injection, schedule: Q01DX001 (ip), vehicle: saline with Tween-80.
[8] abbreviates: endpoint: mean survival time, dose: 100.0 mg/kg/injection, schedule: Q01DX001 (ip), vehicle: saline with Tween-80.
[9] abbreviates: endpoint: mean survival time, dose: 50.0 mg/kg/injection, schedule: Q04DX002 (ip), vehicle: saline with Tween-80.
[10] abbreviates: endpoint: mean survival time, dose: 100.0 mg/kg/injection, schedule: Q04DX002 (ip), vehicle: saline with Tween-80.
Where [11] appears, read: endpoint: mean survival time, dose: 200.0 mg/kg/injection, schedule: Q04DX002 (ip), vehicle: saline with Tween-80.

`C=CC(C)(C)n1cc(C2=C(O)C(=O)C(c3cn(C(C)(C)C=C)c4ccccc34)=C(O)C2=O)c2ccccc21`: the T/C by setting is: (endpoint: mean survival time, dose: 2.5 mg/kg/injection, schedule: Q01DX009 (ip), vehicle: Klucel (hydroxypropylcellulose) (HPC)) 97 % of control; (endpoint: mean survival time, dose: 2.5 mg/kg/injection, schedule: Q01DX009 (ip), vehicle: carboxymethylcellulose (CMC)) 100 % of control; (endpoint: mean survival time, dose: 5.0 mg/kg/injection, schedule: Q01DX009 (ip), vehicle: Klucel (hydroxypropylcellulose) (HPC)) 93 % of control; (endpoint: mean survival time, dose: 5.0 mg/kg/injection, schedule: Q01DX009 (ip), vehicle: carboxymethylcellulose (CMC)) 100 % of control; (endpoint: mean survival time, dose: 9.0 mg/kg/injection, schedule: Q01DX009 (ip), vehicle: carboxymethylcellulose (CMC)) 96 % of control; (endpoint: mean survival time, dose: 10.0 mg/kg/injection, schedule: Q01DX009 (ip), vehicle: Klucel (hydroxypropylcellulose) (HPC)) 91 % of control. In addition, the T/C (endpoint: mean survival time, dose: 10.0 mg/kg/injection, schedule: Q01DX009 (ip), vehicle: carboxymethylcellulose (CMC)) is 98 % of control; the T/C (endpoint: mean survival time, dose: 18.0 mg/kg/injection, schedule: Q01DX009 (ip), vehicle: carboxymethylcellulose (CMC)) was 98 % of control; the T/C (endpoint: mean survival time, dose: 20.0 mg/kg/injection, schedule: Q01DX009 (ip), vehicle: Klucel (hydroxypropylcellulose) (HPC)) was 93 % of control; the T/C (endpoint: mean survival time, dose: 20.0 mg/kg/injection, schedule: Q01DX009 (ip), vehicle: carboxymethylcellulose (CMC)) is 98 % of control; the T/C (endpoint: mean survival time, dose: 26.0 mg/kg/injection, schedule: Q01DX009 (ip), vehicle: carboxymethylcellulose (CMC)) was 94 % of control; the T/C (endpoint: mean survival time, dose: 40.0 mg/kg/injection, schedule: Q01DX009 (ip), vehicle: Klucel (hydroxypropylcellulose) (HPC)) was 93 % of control. The T/C (endpoint: mean survival time, dose: 40.0 mg/kg/injection, schedule: Q01DX009 (ip), vehicle: carboxymethylcellulose (CMC)) is 93 % of control; the T/C (endpoint: mean survival time, dose: 60.0 mg/kg/injection, schedule: Q01DX009 (ip), vehicle: carboxymethylcellulose (CMC)) is 100 % of control; the T/C (endpoint: median survival time, dose: 5.0 mg/kg/injection, schedule: Q01DX009 (ip), vehicle: Klucel (hydroxypropylcellulose) (HPC)) is 101 % of control; the T/C (endpoint: median survival time, dose: 10.0 mg/kg/injection, schedule: Q01DX009 (ip), vehicle: Klucel (hydroxypropylcellulose) (HPC)) was 100 % of control and 102 % of control; the T/C (endpoint: median survival time, dose: 20.0 mg/kg/injection, schedule: Q01DX009 (ip), vehicle: Klucel (hydroxypropylcellulose) (HPC)) is 97 % of control and 100 % of control; the T/C (endpoint: median survival time, dose: 40.0 mg/kg/injection, schedule: Q01DX009 (ip), vehicle: Klucel (hydroxypropylcellulose) (HPC)) was 115 % of control and 109 % of control.

Regarding `CCOC(=O)CCCSc1n[nH]c(=O)[nH]c1=O`, the T/C was 100 % of control (endpoint: mean survival time, dose: 12.5 mg/kg/injection, schedule: Q01DX005 (ip), vehicle: distilled water + Tween-80); 102 % of control (endpoint: mean survival time, dose: 25.0 mg/kg/injection, schedule: Q01DX005 (ip), vehicle: distilled water + Tween-80); 96 % of control (endpoint: mean survival time, dose: 50.0 mg/kg/injection, schedule: Q01DX005 (ip), vehicle: distilled water + Tween-80); 91 % of control (endpoint: mean survival time, dose: 100.0 mg/kg/injection, schedule: Q01DX005 (ip), vehicle: distilled water + Tween-80); 92 % of control (endpoint: mean survival time, dose: 200.0 mg/kg/injection, schedule: Q01DX005 (ip), vehicle: distilled water + Tween-80).

For `NNC(=O)c1ccc(C(=O)NN)cc1`, the T/C (endpoint: mean survival time, dose: 100.0 mg/kg/injection, schedule: Q01DX001 (ip), vehicle: Klucel (hydroxypropylcellulose) (HPC)) is 91 % of control; the T/C under setting [1] is 97 % of control; the T/C under setting [2] is 94 % of control; the T/C (endpoint: mean survival time, dose: 200.0 mg/kg/injection, schedule: Q01DX001 (ip), vehicle: Klucel (hydroxypropylcellulose) (HPC)) was 100 % of control; the T/C under setting [3] was 107 % of control; the T/C under setting [4] is 96 % of control. Moreover, the T/C is 88 % of control (endpoint: mean survival time, dose: 400.0 mg/kg/injection, schedule: Q01DX001 (ip), vehicle: Klucel (hydroxypropylcellulose) (HPC)); 104 % of control under setting [5]; 96 % of control under setting [6].

Regarding `CC(C)C(Br)C(=O)NCC(=O)O` (stereo not drawn), the T/C by setting is: under setting [1], 103 % of control; under setting [3], 97 % of control; under setting [5], 98 % of control.

As for `CC1=CC(=O)C=C/C1=N/S(=O)(=O)c1ccccc1`, the T/C reads like this: (endpoint: mean survival time, dose: 25.0 mg/kg/injection, schedule: Q01DX001 (ip), vehicle: saline with Tween-80) 93 % of control; under setting [7], 90 % of control; under setting [8], 97 % of control.

As for `COC(=O)c1cc(C)n(-c2ccc(C)cc2)c1C`, the T/C was 100 % of control under setting [2], 96 % of control under setting [4] and 97 % of control under setting [6].

For `CCOC(OCC)c1nc(N)[nH]c(=O)c1CCCCc1ccccc1`, the T/C by setting is: under setting [2], 87 % of control; under setting [4], 87 % of control; under setting [6], 95 % of control.

As to `Cc1cc(O)c2c(c1O)C(=O)c1c(O)ccc(O)c1C2=O`, the T/C is 95 % of control (endpoint: mean survival time, dose: 100.0 mg/kg/injection, schedule: Q01DX001 (ip), vehicle: saline); 95 % of control (endpoint: mean survival time, dose: 200.0 mg/kg/injection, schedule: Q01DX001 (ip), vehicle: saline); 97 % of control (endpoint: mean survival time, dose: 400.0 mg/kg/injection, schedule: Q01DX001 (ip), vehicle: saline).

Take `O=C1c2ccccc2C(=O)N1CCS(=O)(=O)Cl`: the T/C is, setting by setting: under setting [7], 100 % of control; (endpoint: mean survival time, dose: 50.0 mg/kg/injection, schedule: Q01DX009 (ip), vehicle: saline with Tween-80) 95 % of control and 101 % of control; under setting [9], 97 % of control and 108 % of control; (endpoint: mean survival time, dose: 50.0 mg/kg/injection, schedule: Q04DX003 (ip), vehicle: saline with Tween-80) 98 % of control; under setting [8], 97 % of control; under setting [1], 96 % of control and 101 % of control. In addition, the T/C is 96 % of control and 100 % of control under setting [10]; 98 % of control under setting [2]; 98 % of control (endpoint: mean survival time, dose: 200.0 mg/kg/injection, schedule: Q01DX001 (ip), vehicle: saline with Tween-80); 93 % of control under setting [3]; 100 % of control and 101 % of control under setting [11]; 101 % of control under setting [4].

For the compound `Cc1ccc(S(=O)(=O)OCCCCCOS(=O)(=O)c2ccc(C)cc2)cc1`, the T/C is 100 % of control under setting [1]; 100 % of control under setting [2]; 100 % of control under setting [3]; 100 % of control under setting [4]; 100 % of control under setting [5]; 97 % of control under setting [6].

As for `CC12CCC(C/C1=C\C#N)C(C)(C)O2` (stereo not drawn), the T/C runs as follows: (endpoint: mean survival time, dose: 50.0 mg/kg/injection, schedule: Q01DX009 (ip), vehicle: Klucel (hydroxypropylcellulose) (HPC)) 97 % of control; (endpoint: mean survival time, dose: 100.0 mg/kg/injection, schedule: Q01DX009 (ip), vehicle: Klucel (hydroxypropylcellulose) (HPC)) 94 % of control; (endpoint: mean survival time, dose: 200.0 mg/kg/injection, schedule: Q01DX009 (ip), vehicle: Klucel (hydroxypropylcellulose) (HPC)) 105 % of control.

In the case of `S=C1NC=CC(S)N1` (stereo not drawn), the T/C under setting [10] is 103 % of control; the T/C under setting [11] is 98 % of control; the T/C (endpoint: mean survival time, dose: 400.0 mg/kg/injection, schedule: Q04DX002 (ip), vehicle: saline with Tween-80) is 98 % of control.

Regarding `CC(=O)Nc1ccc(OC(=O)Nc2cccc(F)c2)cc1`, the T/C was 91 % of control under setting [1], 95 % of control under setting [3] and 91 % of control under setting [5].

In the case of `CC([NH-])C(C)[NH-].[Cl][Pt+2][Cl]` (stereo not drawn), the T/C is 113 % of control (endpoint: mean survival time, dose: 1.56 mg/kg/injection, schedule: Q04DX002 (ip), vehicle: Klucel (hydroxypropylcellulose) (HPC)); 120 % of control (endpoint: mean survival time, dose: 3.12 mg/kg/injection, schedule: Q04DX002 (ip), vehicle: Klucel (hydroxypropylcellulose) (HPC)); 166 % of control (endpoint: mean survival time, dose: 12.5 mg/kg/injection, schedule: Q04DX002 (ip), vehicle: Klucel (hydroxypropylcellulose) (HPC)); 118 % of control and 120 % of control (endpoint: mean survival time, dose: 25.0 mg/kg/injection, schedule: Q04DX002 (ip), vehicle: Klucel (hydroxypropylcellulose) (HPC)); 89 % of control (endpoint: mean survival time, dose: 50.0 mg/kg/injection, schedule: Q04DX002 (ip), vehicle: Klucel (hydroxypropylcellulose) (HPC)).

Consider `COc1ccccc1N=Nc1c(O)n(-c2ccccc2Cl)c(=S)n(-c2ccccc2OC)c1=O`, for which the T/C is 105 % of control (endpoint: mean survival time, dose: 25.0 mg/kg/injection, schedule: Q04DX002 (ip), vehicle: saline with Tween-80); 90 % of control under setting [9]; 94 % of control under setting [10].

`CC(=O)OC(C(=O)N(c1ccccc1)c1ccccc1)c1ccccc1` (stereo not drawn): the T/C runs as follows: under setting [2], 100 % of control; under setting [4], 94 % of control; under setting [6], 108 % of control.

`CCOC(=O)C(OC(C)=O)c1ccccc1` (stereo not drawn): the T/C by setting is: under setting [1], 98 % of control; under setting [3], 93 % of control; under setting [5], 96 % of control.

These data come from PubChem BioAssay AID256 (DTP/NCI, 2004).
